{"source": "patent US8846627B2", "about": "“Method for treatment of malaria” (The Second Military Medical University, priority 2009, dated 2014)", "key": {"[1]": {"molecular_target": "T1, Falcipain-2 protease (FP-2) (Plasmodium falciparum, UniProt Q8I6U4)", "T1 construct": "The falcipain-2 fragment was amplified by the polymerase chain reaction (PCR); His6 (N-terminal MRGS-His6 supplied by the pQE-30 vector; own knowledge of the vector, consistent with the Ni2+-NTA purification) (N); made in house; host or cells: E. coli M15", "T1 sequence (Q8I6U4 244-484)": "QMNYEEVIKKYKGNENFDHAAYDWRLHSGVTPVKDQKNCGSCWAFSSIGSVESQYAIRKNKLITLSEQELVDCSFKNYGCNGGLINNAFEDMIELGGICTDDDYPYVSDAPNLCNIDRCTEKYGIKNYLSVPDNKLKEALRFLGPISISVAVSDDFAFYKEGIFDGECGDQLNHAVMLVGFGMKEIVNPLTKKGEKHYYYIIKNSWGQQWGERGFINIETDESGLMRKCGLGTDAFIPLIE", "assay": "SPR (Biacore 3000) binding assay with immobilised FP-2 protein", "details": "SPR screening at 1 μM and 10 μM", "source_text": "The screening and kinetics determination of the falcipain-2 protease and tiliroside binding activity are based on SPR mechanism, which employs Biacore 3000 (Biacore AB, Uppsala, Sweden).\n(1) The Construction of Falcipain-2 Plasmid (pQE30-Fal2)\nPrimers were designed according to the falcipain-2 cDNA sequence, utilizing the following primers, forward 5′[…]3′(SEQ ID NO. 1) and reverse 5′[…]3′ (SEQ ID NO. 2), which including two restriction sites, BamH I and SaI I The falcipain-2 fragment was amplified by the polymerase chain reaction (PCR), and the PCR product was ligated into the pQE-30 expression vector and then further verified by sequencing. This construct was transformed into E. coil M15 (Qiagen).\n(2) Expression and Purification of Falcipain-2 Protein\nThe engineering bacteria were obtained by transforming constructed plasmid pQE30-Fal2 into the E. coli M15 cells. They were culturing in LB medium (10 g/L tryptone, 5 g/L yeast extract, 10 g/L sedium chloride) containing ampicillin […] and kanamtcin […] for overnight. Then, transfer the bacteria into fresh LB medium (1 L) containing ampicillin and kanamycin (according to 1:100) at 37° C., 220 rpm. […] Bound protein was eluted with 8M urea, 20 mM Tris-Cl, 1M imidazole, pH 8.0, and the eluted protein was analyzed by SDS-PAGE. […]"}, "[2]": {"molecular_target": "T1, Falcipain-2 protease (FP-2)", "assay": "Falcipain-2 protease inhibition assay (fluorescence reaction rate)", "format": "biochemical", "method": "(1) Expression and Purification of Falcipain-2 and Refolding of FP-2 Inclusion Bodies Protein\n(2) The Determination of the Invention Compounds' Inhibitory Activity Against FP-2\nFP-2 protein and test compounds dissolved in DMSO (prepared from EXAMPLES 1-4) were added to 197 μL, buffer, containing 100 mM NaOAc, 10 mM DTT, pH 5.5 (final concentration 10 μg/mL). The test compound were Stenopalustroside A, Stenopalustroside D, Tiliroside, kaempferol 3-O-β-(6″-caffeoylglucoside) and kaempferol 3-(2,4-di-E-p-coumaroyl-rhamnoside), respectively, which final concentration were 10 μM and 0 μM (as negative control). These compounds were incubated for […] and employed MD SpectraMax M5 Microplate Reader to continuous detect the RFU for 15 min, at excitation 355 nm and emission 460 nm Calculate the reaction rate Km, and obtain percentage inhibitory rate of the test compound at 10 μM by the following equation,\nThe equation is: (Kmof control group−Kmof experimental group)/Kmof control group×100%\nSelect […] compounds with over 50% inhibitory rate to detect IC50, and utilize the compound solutions prepared from EXAMPLE 1 to EXAMPLE 4, Stenopalustroside A, tiliroside kaempferol 3-O-β-(6″-caffeoylglucoside), and the experimental methods and system followed as EXAMPLE 6. According to FP-2 activity reaction rate Km with compounds at different concentrations, we can calculate the inhibitory rate of compounds against FP-2 at different concentration. The IC50 value was fitted with utilizing the Sigmoidal Equation by Origin software."}}, "data": [{"smiles": "O=C(/C=C/c1ccc(O)cc1)OC[C@H]1O[C@@H](Oc2c(-c3ccc(O)cc3)oc3cc(O)cc(O)c3c2=O)[C@H](O)[C@@H](O)[C@@H]1O", "note": "[Tiliroside]", "values": [{"measurement": "binding activity with FP-2 protein", "setting": "[1]", "result": "obvious binding activity"}, {"measurement": "IC50", "setting": "[2]", "result": 13.1, "unit": "µM"}, {"measurement": "inhibition at 10 µM", "setting": "[2]; 10 μM compound, pH 5.5", "result": 64.4, "unit": "%"}]}]}
